From PMC8286840, “Identifying SARS-CoV-2 antiviral compounds by screening for small molecule inhibitors of Nsp3 papain-like protease” (Biochemical Journal, 2021)
Structures can show the parent of a compound that is named as a salt. Where two headings read alike, the source gives them in different places.

Legend:
[1] = biological target: T1, SARS-CoV-2 PLpro (nsp3 1564–1878) (Severe acute respiratory syndrome coronavirus 2, UniProt P0DTD1); experiment: biochemical; design: FRET-quenched peptide (Pro3) cleavage by PLpro, 10 min pre-incubation, slope over 20 min, normalised to no-compound control; settings: low concentration screen, read-out: % of control remaining
[2] = biological target: T1, SARS-CoV-2 PLpro (nsp3 1564–1878); experiment: biochemical; design: FRET-quenched peptide (Pro3) cleavage by PLpro, 10 min pre-incubation, slope over 20 min, normalised to no-compound control; settings: high concentration screen, read-out: % of control remaining

Compound `CC[C@H](C)C(=O)O[C@H]1CCC=C2C=C[C@H](C)[C@H](CC[C@@H]3C[C@@H](O)CC(=O)O3)[C@H]21` [Mevastatin] has a remaining activity at 1.25 µM ([1]; Well no.=922) of 105%, a remaining activity at 1.25 µM ([1]; Well no.=1618) of 102% and a remaining activity at 1.25 µM ([1]; Well no.=3381) of 90.7%. The remaining activity at 3.75 µM ([2]; Well no.=922) was 104%, the remaining activity at 3.75 µM ([2]; Well no.=1618) was 103% and the remaining activity at 3.75 µM ([2]; Well no.=3381) was 91.3%.

`Cc1cc(Nc2cc(N3CCN(C)CC3)nc(Sc3ccc(NC(=O)C4CC4)cc3)n2)n[nH]1` [Tozasertib] gave a remaining activity at 1.25 µM ([1]; Well no.=2895) of 101% and a remaining activity at 3.75 µM ([2]; Well no.=2895) of 103%.

`CC(C)(C)c1cc(O)ccc1O` [tert-Butylhydroquinone] gave a remaining activity at 1.25 µM ([1]; Well no.=3861) of 98% and a remaining activity at 3.75 µM ([2]; Well no.=3861) of 97.9%.

Compound `NC(N)=NCCC[C@H](NC(=O)COCC(c1ccccc1)c1ccccc1)C(=O)O` [SB290157 (trifluoroacetate)] has a remaining activity at 1.25 µM ([1]; Well no.=8404) of 94.2% and a remaining activity at 3.75 µM ([2]; Well no.=8404) of 92.8%.

`COc1ncnc(NS(=O)(=O)c2ccc(N)cc2)c1OC` [Sulfadoxine] was tested, and the remaining activity at 1.25 µM ([1]; Well no.=2287) was 97%, the remaining activity at 1.25 µM ([1]; Well no.=7358) was 95.6% and the remaining activity at 3.75 µM ([2]; Well no.=2287) was 92.6%. For the same compound, the remaining activity at 3.75 µM ([2]; Well no.=7358) was 98%.

`COc1cc([C@@H]2CC(=O)c3c(O)cc(O)cc3O2)ccc1O` [Homoeriodictyol] showed a remaining activity at 1.25 µM ([1]; Well no.=3683) of 98.7% and a remaining activity at 3.75 µM ([2]; Well no.=3683) of 98.2%.

Compound `CCCCCCCC(=O)c1c(O)cc(O)cc1CC(=O)OCC` [Cytosporone B] has a remaining activity at 1.25 µM ([1]; Well no.=5993) of 98.3% and a remaining activity at 3.75 µM ([2]; Well no.=5993) of 98.7%.

In the case of `CC(C)OC(=O)C1=CN(C(=O)c2ccc(F)c(F)c2)CC(C)(C)c2c1[nH]c1ccccc21` [WAY-362450], the remaining activity at 1.25 µM ([1]; Well no.=4928) was 95.1% and the remaining activity at 3.75 µM ([2]; Well no.=4928) was 96.2%.

`NCC(O)(CS(=O)(=O)O)c1ccc(Cl)cc1` (centres unmarked) [2-Hydroxysaclofen] gave a remaining activity at 1.25 µM ([1]; Well no.=355) of 97.9% and a remaining activity at 3.75 µM ([2]; Well no.=355) of 95.6%.

Compound `Cc1c(-c2ccnn2C)cc(C(=O)NCc2ccc(S(C)(=O)=O)cn2)c(=O)n1-c1cccc(C(F)(F)F)c1` [Alvelestat (AZD9668)] has a remaining activity at 1.25 µM ([1]; Well no.=9174) of 95.1% and a remaining activity at 3.75 µM ([2]; Well no.=9174) of 83.8%.

Work on `CO/N=C(\C(=O)N[C@@H]1C(=O)N2C(C(=O)O)=C(Cn3ccc(=N)n3CCO)CS[C@H]12)c1csc(N)n1` [Cefoselis sulfate] yielded a remaining activity at 1.25 µM ([1]; Well no.=5199) of 96.6% and a remaining activity at 3.75 µM ([2]; Well no.=5199) of 100%.

For `Cc1cccc([C@H](C)c2c[nH]cn2)c1C` [Dexmedetomidine (hydrochloride)], the remaining activity at 1.25 µM ([1]; Well no.=6367) was 102% and the remaining activity at 3.75 µM ([2]; Well no.=6367) was 103%.

In the case of `O=c1[nH]ccc2c(S(=O)(=O)N3CCCNCC3)cccc12` [HA 1100 hydrochloride - 1-[(1,2-Dihydro-1-oxo-5-isoquinolinyl)sulfonyl]hexahydro-1H-1,4-diazepine hydrochloride], the remaining activity at 1.25 µM ([1]; Well no.=2526) was 95.2% and the remaining activity at 3.75 µM ([2]; Well no.=2526) was 97.2%.

`C[C@]12C[C@H](O)[C@H]3[C@@H](CCC4=CC(=O)CC[C@@]43C)[C@@H]1CC[C@@H]2C(=O)CO` [Corticosterone] showed a remaining activity at 1.25 µM ([1]; Well no.=285) of 93.6%, a remaining activity at 1.25 µM ([1]; Well no.=1928) of 99.3% and a remaining activity at 1.25 µM ([1]; Well no.=7075) of 104%. It also gave a remaining activity at 3.75 µM ([2]; Well no.=285) of 92.1%, a remaining activity at 3.75 µM ([2]; Well no.=1928) of 96.3% and a remaining activity at 3.75 µM ([2]; Well no.=7075) of 105%.

In the case of `COc1cc2c(cc1OC(C)C)[C@H](c1ccc(Cl)cc1)N(c1ccc(N(C)C[C@H]3CC[C@H](N4CCN(C)C(=O)C4)CC3)cc1)C(=O)C2` [NVP-CGM097 (sulfate)], the remaining activity at 1.25 µM ([1]; Well no.=6878) was 95.2% and the remaining activity at 3.75 µM ([2]; Well no.=6878) was 89.6%.

Compound `COc1ccccc1N1CCN(CCN(C(=O)c2ccc(I)cc2)c2ccccn2)CC1` [p-MPPI hydrochloride] has a remaining activity at 1.25 µM ([1]; Well no.=1137) of 97.8% and a remaining activity at 3.75 µM ([2]; Well no.=1137) of 102%.

For `CC[C@H](C(=O)N1CCCC[C@H]1C(=O)O[C@H](CCc1ccc(OC)c(OC)c1)c1cccc(OCC(=O)O)c1)c1cc(OC)c(OC)c(OC)c1` [AP1867], the remaining activity at 1.25 µM ([1]; Well no.=6982) was 103% and the remaining activity at 3.75 µM ([2]; Well no.=6982) was 100%.

For `Cc1c(C)c2c(c(C)c1O)CCC(C)(CN1CCN(c3cc(N4CCCC4)nc(N4CCCC4)n3)CC1)O2` (centres unmarked) [U-83836 dihydrochloride], the remaining activity at 1.25 µM ([1]; Well no.=1284) was 105% and the remaining activity at 3.75 µM ([2]; Well no.=1284) was 106%.

`CCCCCCCCCCCCCCCCCCOCC(COP(=O)([O-])OCC[N+](C)(C)C)OC` (centres unmarked) [Edelfosine] showed a remaining activity at 1.25 µM ([1]; Well no.=5699) of 95.5% and a remaining activity at 3.75 µM ([2]; Well no.=5699) of 96.4%.

Compound `NC(=O)C(=O)O` [Sodium Oxamate] has a remaining activity at 1.25 µM ([1]; Well no.=944) of 97.2% and a remaining activity at 3.75 µM ([2]; Well no.=944) of 96.9%.

`CCCCCCCCCCCCCCCC(=O)OC(CC(=O)O)C[N+](C)(C)C` (racemic) [Palmitoyl-DL-Carnitine chloride] showed a remaining activity at 1.25 µM ([1]; Well no.=1098) of 86.5% and a remaining activity at 3.75 µM ([2]; Well no.=1098) of 85.4%.

`O=C(O)CC(=O)CC(=O)O` [3-Oxopentanedioic acid] gave a remaining activity at 1.25 µM ([1]; Well no.=7499) of 97.9% and a remaining activity at 3.75 µM ([2]; Well no.=7499) of 99.7%.

Compound `COc1c2occc2cc2ccc(=O)oc12` [Xanthotoxin] has a remaining activity at 1.25 µM ([1]; Well no.=3459) of 104% and a remaining activity at 3.75 µM ([2]; Well no.=3459) of 106%.

In the case of `NCCCS(=O)(=O)O` [3-Amino-1-propanesulfonic acid sodium], the remaining activity at 1.25 µM ([1]; Well no.=301) was 98% and the remaining activity at 3.75 µM ([2]; Well no.=301) was 98.1%.

`COc1ccc(CN(CCN(C)C)c2ccccn2)cc1` [Pyrilamine maleate] was tested, and the remaining activity at 1.25 µM ([1]; Well no.=814) was 101% and the remaining activity at 3.75 µM ([2]; Well no.=814) was 104%.

With `C#CCOc1ccc2c(c1)c(-c1ccc(C(C)C)cc1)nc(=O)n2C(C)C` [Calcium-Sensing Receptor Antagonists I] the remaining activity at 1.25 µM ([1]; Well no.=8007) was 101% and the remaining activity at 3.75 µM ([2]; Well no.=8007) was 98.6%.

`N#Cc1c(N)nc(SCc2csc(-c3ccc(Cl)cc3)n2)c(C#N)c1-c1ccc(OCCO)cc1` [Capadenoson] was tested, and the remaining activity at 1.25 µM ([1]; Well no.=8649) was 106% and the remaining activity at 3.75 µM ([2]; Well no.=8649) was 102%.

Work on `COC(=O)c1ccccc1O` [Methyl salicylate] yielded a remaining activity at 1.25 µM ([1]; Well no.=1716) of 102% and a remaining activity at 3.75 µM ([2]; Well no.=1716) of 101%.

`CCCn1c(=O)c2[nH]c(-c3ccc(OCC(=O)NCCN)cc3)nc2n(CCC)c1=O` [Xanthine amine congener] was tested, and the remaining activity at 1.25 µM ([1]; Well no.=1532) was 95.7% and the remaining activity at 3.75 µM ([2]; Well no.=1532) was 89.4%.

Work on `COc1ccc(C(CN(C)C)C2(O)CCCCC2)cc1` (centres unmarked) [Venlafaxine] yielded a remaining activity at 1.25 µM ([1]; Well no.=2044) of 100% and a remaining activity at 3.75 µM ([2]; Well no.=2044) of 99.4%.

With `CC(=O)[C@]1(O)Cc2c(O)c3c(c(O)c2[C@@H](O[C@H]2C[C@H](N)[C@H](O)[C@H](C)O2)C1)C(=O)c1ccccc1C3=O` [Idarubicin] the remaining activity at 1.25 µM ([1]; Well no.=574) was 103%, the remaining activity at 1.25 µM ([1]; Well no.=1613) was 102% and the remaining activity at 3.75 µM ([2]; Well no.=574) was 102%. It also gave a remaining activity at 3.75 µM ([2]; Well no.=1613) of 103%.
